Patent US20110159017A1, “TRYTOPHAN CATABOLISM IN CANCER TREATMENT AND DIAGNOSIS” (Ludwig Institute for Cancer Research Ltd., priority 2008, published 2011)

Tests used:
[1] = biological target: T1, IDO (Homo sapiens, UniProt P14902); conditions: J F Reinhard et al., 1996, read-out: IC50 (affinity to IDO); cited from earlier work
Target sequence in this assay (P14902 whole entry, species assumed): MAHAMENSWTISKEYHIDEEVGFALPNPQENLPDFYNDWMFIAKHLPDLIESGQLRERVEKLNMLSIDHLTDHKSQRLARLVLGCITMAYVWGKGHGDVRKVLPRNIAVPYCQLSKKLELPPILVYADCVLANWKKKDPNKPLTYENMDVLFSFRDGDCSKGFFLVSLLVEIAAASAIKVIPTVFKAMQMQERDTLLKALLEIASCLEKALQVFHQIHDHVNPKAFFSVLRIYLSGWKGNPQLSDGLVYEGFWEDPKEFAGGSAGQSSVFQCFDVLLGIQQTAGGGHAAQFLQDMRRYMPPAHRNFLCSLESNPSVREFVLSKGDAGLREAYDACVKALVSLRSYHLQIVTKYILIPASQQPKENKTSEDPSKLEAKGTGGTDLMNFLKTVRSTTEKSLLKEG

[2] = biological target: T2, human TDO2 (Homo sapiens, UniProt P48775); experiment: Tryptophan degradation and kynurenin production by 293-E cells transfected with human TDO2, HPLC of supernatant; format: cell-based; conditions: 293-E hTDO cells, overnight, HBSS with 25 μM tryptophan, increasing inhibitor concentrations (FIG. 4)
T2 construct: expressed in transfected cells; host or cells: human 293-EBNA (293-E) cells
T2 sequence (P48775 whole entry): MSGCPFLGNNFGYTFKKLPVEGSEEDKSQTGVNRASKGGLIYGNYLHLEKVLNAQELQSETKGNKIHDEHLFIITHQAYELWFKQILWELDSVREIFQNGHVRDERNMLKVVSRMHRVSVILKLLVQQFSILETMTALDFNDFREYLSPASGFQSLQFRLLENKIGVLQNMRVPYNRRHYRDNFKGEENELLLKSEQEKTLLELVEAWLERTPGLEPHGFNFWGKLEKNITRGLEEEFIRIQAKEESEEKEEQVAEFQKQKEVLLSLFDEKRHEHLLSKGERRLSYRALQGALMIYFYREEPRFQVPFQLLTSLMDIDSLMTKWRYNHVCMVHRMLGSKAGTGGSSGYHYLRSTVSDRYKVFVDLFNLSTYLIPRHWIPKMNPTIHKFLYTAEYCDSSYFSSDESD

[3] = biological target: T3, TDO2 in Head and Neck carcinoma cell line 2720 (SENY) (Homo sapiens, UniProt P48775); experiment: Tryptophan consumption and kynurenine production by Head and Neck carcinoma cell line 2720 (SENY), HPLC of supernatant; format: cell-based; conditions: at 20 μM; SENY cells, overnight, HBSS with 50 μM tryptophan
T3 construct: To confirm the expression of enzymatically active TDO2, we used Head and Neck carcinoma cell line 2720 (SENY); endogenous in cells; host or cells: Head and Neck carcinoma cell line 2720 (SENY)
T3 sequence (P48775 whole entry): as above
Description: FIG. 5. A bar graph depicting tryptophan consumption and kynurenine production in head and neck carcinoma cell line 2720 (SENY) in the presence or absence of the TDO-specific inhibitor 680C91 or the IDO inhibitor mb.
To confirm the expression of enzymatically active TDO2, we used Head and Neck carcinoma cell line 2720 (SENY), which expresses 12.7 molecules of TDO2 mRNA/cell. We measured tryptophan consumption and kynurenine production in the supernatant of 5×10^5 cells incubated overnight in 2 ml of HBSS containing 50 μM tryptophan. Tryptophan and kynurenine concentrations were measured by HPLC using standard methods.
See FIG. 5 for results of this assay. To confirm that the tryptophan-degrading activity was due to TDO, TDO-specific inhibitor 680C91 was included at 5 μM or 20 μM. As control, an IDO inhibitor (mb) was also used at 5 μM or 20 μM. A tryptophan-degrading activity was detected and was clearly observed by looking at the production of kynurenine: 11 μM as compared to 0 in the control without cells. This activity was mostly attributable to TDO, as it was blocked by the TDO-specific inhibitor 680C91 (50% inhibition at 20 μM).

[4] = biological target: T1, IDO; experiment: Tryptophan degradation and kynurenin production by 293-E cells transfected with human IDO, HPLC of supernatant; format: cell-based; design: expressed in transfected cells; host or cells: human 293-EBNA (293-E) cells; conditions: 293-E hIDO cells, overnight, HBSS with 25 μM tryptophan, increasing inhibitor concentrations (FIG. 4)
Description: FIG. 4. Line graphs depicting concentrations of tryptophan and kynurenine in culture supernatants of different transfected cells. Control human 293-EBNA cells (293-E) (FIG. 4A), 293-E cells transfected with human IDO (293-E hIDO) (FIG. 4B) or human 293-E cells transfected with human TDO2 (293-E hTDO) (FIG. 4C) were incubated overnight (4×10^5 cells/2000) in Hank's balanced Salt solution (HBSS) supplemented with 25 μM tryptophan and increasing concentrations of the 680C91 inhibitor compound ([inh]). The concentrations (μM) of tryptophan ([Trp], ⋄) and kynurenin ([Kyn], □) were measured by HPLC in the supernatant.
A TDO inhibitor, 680C91, was described in Salter, M., R. Hazelwood, C. I. Pogson, R. Iyer, and D. J. Madge. 1995. Biochem. Pharmacol. 49:1435-1442. We synthesized this compound and tested its capacity to block tryptophan degradation by human 293 cells transfected with TDO2.
Target sequence in this assay (P14902 whole entry): as the sequence (P14902 whole entry, species assumed) above

block of tryptophan degradation and kynurenin production by TDO-expressing cells [2]	inhibition of tryptophan-degrading activity (kynurenine production) [3] [%]	block of tryptophan degradation and kynurenin production by IDO-expressing cells [4]	SMILES	IC50 [1] [mM]
–	–	–	C(=C\c1c[nH]c2ccccc12)/c1ccncc1 [540C91, (E)-3-[2-(4′-pyridyl)-vinyl]-1H-indole]	1.15
efficiently blocked	50	failed to block	Fc1ccc2c(/C=C/c3cccnc3)c[nH]c2c1 [680C91, (E)-6-fluoro-3-[2-(3-pyridyl)vinyl]-1H-indole]	–
